{
  "source": "patent US9901536B2",
  "about": "“Composition for improving skin, containing pomegranate concentrate as active ingredient” (HLSCIENCE CO., LTD., priority 2014, dated 2018)",
  "key": {"[1]": {"test_system": "procollagen synthesis in HDF-N cells", "assay": "Procollagen synthesis (PIP EIA) in HDF-N cells", "format": "cell-based, human", "details": "10 ng/ml, 24 h", "procedure": "(§1) For testing of wrinkle improvement, normal human primary dermal fibroblasts, neonatal (HDF-N) derived from the human neonatal foreskin were used. The cells were seeded onto the bottom of a culture dish and cultured at 37° C. in a 5% carbon dioxide incubator after adding the fibroblast basal medium (FBM, Lonza, CC-3131) containing 0.1% insulin, 0.1% rhFGF, 0.1% gentamicin and 2% FBS.\nIn order to measure the effect of promoting procollagen synthesis of the test solution, HDF-N cells were seeded onto a 48-well plate with 1×10^4 cells/well and then cultured for 24 hours. Then, after maintaining a starvation state for 24 hours, the cells were treated with the test solution diluted with the cell culture medium FBM (without supplements) at different concentrations and then cultured for 24 hours. The cultured cells were recovered and the quantity of procollagen was measured using the procollagen type I c-peptide (PIP) EIA kit (Takara, MK101). The cells adherent to the bottom were washed with PBS and lysed with 1 N NaOH to determine the total amount of proteins. Then, the quantity of procollagen per given quantity of proteins was calculated."}, "[2]": {"test_system": "melanin synthesis in Melan-a cells", "assay": "Inhibition of melanin synthesis in Melan-a cells", "format": "cell-based, mouse", "details": "100 μM, 6 days", "procedure": "For evaluation of skin-whitening effect, Melan-a cells derived from C57BL/6J (black, a/a) mouse, provided by Dr. Dorothy C Benette (St George's Hospital, London, UK), were used as an immortalized cell line (Bennett D C, Cooper P J, Hart I R. A line of non-tumorigenic mouse melanocyte, syngeneic with the B16 melanoma and requiring a tumor promoter for growth. Int J Cancer 1987; 39: 414-418). The cells were cultured at 37° C. in a 5% carbon dioxide incubator after adding the RPMI 1640 medium containing 10% fetal bovine serum, 50 U/mL penicillin, 50 μg/mL streptomycin, 200 nM phorbol 12-myristate 13-acetate (PMA).\nMelan-a cells were seeded onto a 24-well plate with 3×10^4 cells/well. After culturing the cells in an incubator for 24 hours so that the cells adhered well to the plate, the test solution diluted with a culture medium to different concentrations were added to the respective wells. The test sample was treated once in 3 days, for a total of 6 days. […] The cells were lysed with 1 N NaOH and then centrifuged. After separating the supernatant, the total amount of proteins was quantified by measuring absorbance at 405 nm. The melanin content was determined from the protein quantity."}, "elastase": {"test_system": "elastase", "assay": "Elastase inhibition assay", "format": "biochemical, human", "details": "10 μM", "procedure": "The HDF-N fibroblasts were used to measure the effect of the test solution on elastase activity. For this, the cultured HDF-N cells were treated with 0.2 M Tris-HCl (pH 8.0) containing 0.1% Triton X-100 and lysed by sonication. After centrifuging at 3,000 rpm for 20 minutes and taking the supernatant, the activity of the enzyme was measured by quantifying it and the total protein quantity. For measurement of the elastase activity, the homogenized fibroblasts were treated with 200 μg/mL elastase, 0.2 M Tris-HCl buffer and the sample at different concentrations. After adding 50 mM STANA, a substrate specific for elastase, and incubating at 37° C., absorbance was measured at 405 nm. The degree of elastase activity inhibition was compared with a control group not treated with the test solution. Phosphoramidon was used as a positive control group."}, "[3]": {"test_system": "hyaluronan synthesis in HaCaT cells", "assay": "Hyaluronan synthesis in keratinocytes by ELISA", "format": "cell-based, human", "details": "20 mM, 24 h", "procedure": "Human keratinocytes (HaCaT cells, ATCC) were seeded onto the bottom of a culture dish and cultured at 37° C. in a 5% carbon dioxide incubator after adding Dulbecco's modified Eagle's medium (DMEM, Welgene, Korea) containing penicillin (100 IU/mL), streptomycin (10 μg/mL) and 10% FBS.\nThe skin-moisturizing effect of the samples was evaluated by measuring the degree of hyaluronan synthesis in keratinocytes by ELISA. For this, the HaCaT cells were seeded onto a plate at 5×10^4 cells/well and cultured for 24 hours. 24 hours later, the cells were treated with the test samples diluted with the DMEM cell culture medium (without supplements) and cultured for 24 hours. The cultured cells were recovered and the quantity of hyaluronan was measured by hyaluronan ELISA (R&D Systems, DY3614). The cells adherent to the bottom were washed with PBS and lysed with 1 N NaOH to determine the total amount of proteins. Then, the quantity of hyaluronan per given quantity of proteins was calculated.\nThe protein quantity was measured using a Bio-Rad DC protein kit according to the Lowry method."}, "MMP-1": {"test_system": "MMP-1", "assay": "Inhibition of UV-induced MMP-1 expression in HDF-N cells", "format": "cell-based, human", "details": "UVA 5 J/cm^2, 1 μM", "procedure": "as §1\nThe effect of the test solution on UV-induced MMP-1 expression was evaluated in order to evaluate the wrinkle-improving effect of the sample by measuring the activity of matrix metalloproteinase (MMP-1) by immuno-ELISA assay. HDF-N cells were seeded onto a 24-well plate with 2×10^4 cells/well and then cultured for 24 hours. 24 hours later, after discarding the medium and washing with DPBS, 200 μL of DPBS was added and 5 J/cm^2 of UV-A was irradiated. After treating the cells with the sample diluted to an adequate concentration, the cells were cultured for 24 hours. Then, the culture medium was taken and the quantity of MMP-1 was measured with the human total MMP-1 ELISA kit (R&D Systems, DY901). The measured quantity of MMP-1 was calibrated with the total protein quantity."}},
  "note": "Where “and” joins values, the source holds several entries; their conditions need not be identical. Equal entries are not always repeated.",
  "data": [
    {"compound": "Transforming growth factor-β [TGF-β]", "values": [
      {"measurement": "procollagen production, % control", "setting": "[1]", "result": "150.8 % control and 150.88 ± 5.366 % control"}
    ]},
    {"compound": "OC[C@H]1O[C@@H](Oc2ccc(O)cc2)[C@H](O)[C@@H](O)[C@@H]1O", "note": "[Arbutin]", "values": [
      {"measurement": "melanin content, % control", "setting": "[2]", "result": "73.54 ± 5.397", "unit": "% control"},
      {"measurement": "melanin content, % control", "setting": "[2]; listed as arbutin", "result": "melanin synthesis was inhibited"}
    ]},
    {"compound": "CC(C)C[C@H](NP(=O)(O)O[C@@H]1O[C@@H](C)[C@H](O)[C@@H](O)[C@H]1O)C(=O)N[C@@H](Cc1c[nH]c2ccccc12)C(=O)O", "note": "[Phosphoramidon]", "values": [
      {"measurement": "elastase activity, % control", "setting": "elastase", "result": "74.90 ± 5.962", "unit": "% control"},
      {"measurement": "elastase activity, % control", "setting": "elastase; listed as phosphoramidon", "result": 74.9, "unit": "% control"}
    ]},
    {"compound": "CC(=O)N[C@H]1C(O)O[C@H](CO)[C@@H](O)[C@@H]1O", "note": "(stereo partly drawn) [NAG, N-Acetyl-D-glucosamine]", "values": [
      {"measurement": "hyaluronan, % control", "setting": "[3]", "result": "224.8 % control and 224.85 ± 16.937 % control"}
    ]},
    {"compound": "CC1=C(/C=C/C(C)=C/C=C/C(C)=C/C(=O)O)C(C)(C)CCC1", "note": "[Retinoic acid]", "values": [
      {"measurement": "MMP-1 production, % UV−", "setting": "MMP-1", "result": "171.68 ± 10.422", "unit": "% UV−"},
      {"measurement": "MMP-1 production, % UV−", "setting": "MMP-1; listed as retinoic acid", "result": 171.6, "unit": "% UV−"}
    ]}
  ]
}
